The NIST ThermoML archive (doi:10.1021/je060257y)
± gives the expanded uncertainty stated by the source.

Experiment: molar heat capacity at constant pressure
Conditions: 101.33 kPa, Crystal

molar heat capacity at constant pressure (298.15 K) [J/K/mol]	molar heat capacity at constant pressure (303.15 K) [J/K/mol]	molar heat capacity at constant pressure (308.15 K) [J/K/mol]	molar heat capacity at constant pressure (313.15 K) [J/K/mol]	molar heat capacity at constant pressure (318.15 K) [J/K/mol]	molar heat capacity at constant pressure (323.15 K) [J/K/mol]	molar heat capacity at constant pressure (328.15 K) [J/K/mol]	molar heat capacity at constant pressure (333.15 K) [J/K/mol]	molar heat capacity at constant pressure (338.15 K) [J/K/mol]	molar heat capacity at constant pressure (343.15 K) [J/K/mol]	Compound
241.8 ± 9.6	243.4 ± 9.7	245.3 ± 9.7	246.3 ± 9.7	248.3 ± 9.8	259.6 ± 10	–	–	–	–	CCc1cc(=O)n(C)c(=O)n1C [2,4(1H,3H)-pyrimidinedione, 6-ethyl-1,3-dimethyl-]
131.8 ± 4.7	135.5 ± 4.7	140.9 ± 4.9	143 ± 4.9	146.1 ± 5	149 ± 5.1	151.8 ± 5.1	154.3 ± 5.2	156.8 ± 5.2	157.4 ± 5.3	O=c1cc[nH]c(=O)[nH]1 [2,4(1H,3H)-pyrimidinedione]
191.1 ± 5.9	198.3 ± 6.1	203.2 ± 6.3	208 ± 6.4	212 ± 6.6	215.6 ± 6.7	219.1 ± 6.8	223.3 ± 6.9	229.3 ± 7.1	234.1 ± 7.3	Cc1nc(O)nc(O)c1C [2,4-dihydroxy-5,6-dimethylpyrimidine]
162.5 ± 5	167.2 ± 5.2	170.2 ± 5.3	172.2 ± 5.3	176.9 ± 5.5	181.4 ± 5.6	183 ± 5.7	187.3 ± 5.8	190.4 ± 5.9	193 ± 6	Cc1cc(O)nc(O)n1 [2,4-dihydroxy-6-methylpyrimidine]
167.2 ± 5.2	167.9 ± 5.2	169.9 ± 5.3	169.9 ± 5.3	171.1 ± 5.3	171.8 ± 5.3	173 ± 5.4	173.1 ± 5.4	174.5 ± 5.4	174.5 ± 5.4	O=[N+]([O-])c1cnc(O)nc1O [2,4-pyrimidinedione, 5-nitro-]
187.4 ± 5.9	193.1 ± 6	191.4 ± 6	193.5 ± 6.1	198.4 ± 6.2	200.3 ± 6.2	202.4 ± 6.3	203.8 ± 6.3	206 ± 6.4	209 ± 6.5	Cc1cc(=O)n(C)c(=O)[nH]1 [3,6-dimethyluracil]
182.2 ± 5.6	183.9 ± 5.7	188.1 ± 5.8	190.3 ± 5.9	192.2 ± 6	195.9 ± 6.1	198.2 ± 6.1	199.4 ± 6.2	204.4 ± 6.3	206.6 ± 6.4	O=c1[nH]cc(C(F)(F)F)c(=O)[nH]1 [5-(trifluoromethyl)uracil]
144.7 ± 4.5	147.9 ± 4.6	148.5 ± 4.6	151 ± 4.7	153.9 ± 4.8	157.1 ± 4.9	157.9 ± 4.9	162 ± 5	164.3 ± 5.1	164.8 ± 5.1	O=c1[nH]cc(Br)c(=O)[nH]1 [5-bromouracil]
136.7 ± 4.2	137.9 ± 4.3	142.1 ± 4.4	142.9 ± 4.4	146.1 ± 4.5	147.2 ± 4.6	151.2 ± 4.7	152.9 ± 4.7	154.9 ± 4.8	157 ± 4.9	Oc1ncc(Cl)c(O)n1 [5-chloro-2,4-pyrimidinedione]
138.3 ± 4.7	139.1 ± 4.7	140 ± 4.7	140.9 ± 4.8	142 ± 4.8	143.6 ± 4.8	145.5 ± 4.9	147.9 ± 4.9	150.6 ± 5	153.8 ± 5.1	O=c1[nH]cc(F)c(=O)[nH]1 [5-fluoro-2,4(1H,3H)-pyrimidinedione]
150.9 ± 4.7	153.9 ± 4.8	156.8 ± 4.9	159.8 ± 5	162.8 ± 5	165.8 ± 5.1	168.6 ± 5.2	170.3 ± 5.3	172.7 ± 5.4	177.5 ± 5.5	O=c1[nH]cc(I)c(=O)[nH]1 [5-iodouracil]
139.4 ± 4.3	141 ± 4.4	141.2 ± 4.4	140.8 ± 4.4	141.3 ± 4.4	144.7 ± 4.5	144.9 ± 4.5	145.1 ± 4.5	146 ± 4.5	147.9 ± 4.6	O=c1cc(Cl)[nH]c(=O)[nH]1 [6-chlorouracil]
163 ± 5.3	168.2 ± 5.4	173.7 ± 5.6	178.7 ± 5.7	184.3 ± 5.8	189.9 ± 6	195.2 ± 6.1	200 ± 6.2	203.5 ± 6.3	205.9 ± 6.4	Cc1c[nH]c(=O)[nH]c1=O [thymine]
157 ± 5	168.8 ± 5.3	181.2 ± 5.7	193 ± 6	206.1 ± 6.4	214.3 ± 6.6	226.1 ± 7	239.2 ± 7.4	249 ± 7.7	260.2 ± 8.1	Cn1c(=O)cc[nH]c1=O [uracil, 3-methyl-]
